Measurements from ChEMBL document CHEMBL1133394, “Novel C-ring analogues of 20(S)-camptothecin. Part 3: synthesis and their in vitro cytotoxicity of A-, B- and C-ring analogues” (Bioorg Med Chem Lett, 2000).

Legend:
ACHN = assay: Tested in vitro for cytotoxicity against human tumor cell line ACHN (renal).; assay type: functional
DU-145 = assay: Tested in vitro for cytotoxicity against human tumor cell line DU-145 (prostate); assay type: functional
OVCAR-8 = assay: Tested in vitro for cytotoxicity against human tumor cell line OVCAR8 (ovarian).; assay type: functional
SF-268 = assay: Tested in vitro for cytotoxicity against human tumor cell line SF-268 (CNS).; assay type: functional
UACC-62 = assay: Tested in vitro for cytotoxicity against human tumor cell line UACC 62 (melanoma); assay type: functional
HOP-62 = assay: Tested in vitro for cytotoxicity against human tumor cell line HOP62 (lung); assay type: functional
NCI/ADR-RES = assay: Tested in vitro for cytotoxicity against human tumor cell line MCF-7/ADR (breast); assay type: functional
[1] = test system: Panel (56 tumour cell lines); assay: Tested in vitro for cytotoxicity against 56 human tumor cell lines; assay type: functional, cell-based

Row | SMILES | GI50 (ACHN) [nM] | GI50 (DU-145) [nM] | GI50 (OVCAR-8) [nM] | GI50 (SF-268) [nM] | GI50 (UACC-62) [nM] | GI50 (HOP-62) [nM] | GI50 (NCI/ADR-RES) [nM] | IC50 [1] [nM]
1 | CC[C@@]1(O)C(=O)OCc2c1cc1n(c2=O)C(OCCO)c2cc3cc(O)ccc3nc2-1 (stereo partly drawn) | 3400 | 3260 | 2520 | 2100 | 2120 | 2440 |  | 
2 | CCc1c2c(nc3cccc(OC)c13)-c1cc3c(c(=O)n1C2OCCF)COC(=O)[C@]3(O)CC (stereo partly drawn) | 1060 | 790 | 1920 | 1890 | 2020 | 1220 | 1990 | 
3 | CCc1c2c(nc3cccc(OC)c13)-c1cc3c(c(=O)n1C2OCCOC)COC(=O)[C@]3(O)CC (stereo partly drawn) | 520 | 1140 | 850 | 590 | 2540 | 660 | 510 | 
4 | CC[C@@]1(O)C(=O)OCc2c1cc1n(c2=O)C(OCCF)c2cc3cc(O)ccc3nc2-1 (stereo partly drawn) | 500 | 250 | 4500 | 20000 | 10000 | 10000 | 4000 | 
5 | CCc1c2c(nc3cccc(OC)c13)-c1cc3c(c(=O)n1C2OCCO)COC(=O)[C@]3(O)CC (stereo partly drawn) | 3820 | 5020 | 8400 | 1100 |  | 6470 | 5530 | 
6 | CCOC1c2c(nc3cccc(OC)c3c2CC)-c2cc3c(c(=O)n21)COC(=O)[C@]3(O)CC (stereo partly drawn) |  |  |  |  |  |  |  | 5370
7 | CC[C@@]1(O)C(=O)OCc2c1cc1n(c2=O)C(OCC(F)(F)F)c2cc3c([N+](=O)[O-])cccc3nc2-1 (stereo partly drawn) | 20 | 60 | 130 | 90 | 160 | 500 | 70 | 
8 | CCc1c2c(nc3ccc(O)cc13)-c1cc3c(c(=O)n1C2OCC(F)(F)F)COC(=O)[C@]3(O)CC (stereo partly drawn) | 400 | 1000 | 500 | 2000 | 70 | 2000 | 400 | 
9 | CC[C@@]1(O)C(=O)OCc2c1cc1n(c2=O)C(OCCOC)c2cc3cc(O)ccc3nc2-1 (stereo partly drawn) | 1200 | 680 | 4500 | 5000 | 520 | 4000 | < 10 | 
10 | CCOC1c2c(nc3ccc(O)cc3c2CC)-c2cc3c(c(=O)n21)COC(=O)[C@]3(O)CC (stereo partly drawn) |  |  |  |  |  |  |  | 5000
11 | CC[C@@]1(O)C(=O)OCc2c1cc1n(c2=O)C(OCCO)c2cc3c([N+](=O)[O-])cccc3nc2-1 (stereo partly drawn) | 3360 | 4130 | 7140 | 4660 | 2460 | 2450 |  | 
12 | CCOC1c2cc3cccc([N+](=O)[O-])c3nc2-c2cc3c(c(=O)n21)COC(=O)[C@]3(O)CC (stereo partly drawn) |  |  |  |  |  |  |  | > 30000
